Assay results: patent US20130004581A1, “CONTROLLING UPTAKE BY CELLS” (Ramot at Tel-Aviv University Ltd., priority 2010, published 2013)

Experiments:
[1] = system: erythrocytes (RBCs); assay: Proton induced uptake and efflux in erythrocytes (RBCs), flow cytometry; type: cell-based
Method: As shown, PIU in erythrocytes depends on external pH in a constant rate. […] Flow cytometry analyses include FITC intensity geometrical mean±SD presented as fold induction relative to background. n=9 in 3 independent experiments.
RBCs were exposed to external pH 5.4 for time durations of 10, 15, 30, 45 and 60 minutes. […] Flow cytometry analyses in terms of geometrical mean±SD are presented as fold induction relative the fluorescent intensity in the first group (10 min). No statistical difference is found in PIU rate for the different groups (p >0.05 by one way ANOVA, n=9 in 3 independent experiments).
Flow cytometry analyses include FITC intensity geometrical mean±SD presented as fold induction relative to background. n=9 in 3 independent experiments.
The cells were washed and divided into 2 groups, suspended in fresh solution of either pH 7.4 or pH 5.4. Cells from each group were incubated for durations of 10, 20, 30, 45 and 60 minutes, before being analyzed by flow cytometry. Results given in terms of geometrical mean±SD are presented as fold induction relative to cells analyzed immediately following exposure to low pH. n=8 in 2 independent experiments.
Following treatment the cells were washed in PBS-G and analyzed by flow cytometry. Results are presented as geometrical mean of FITC intensity±SD for 50,000 cells per sample.
This apparent saturation may be attributed to a competitive efflux process. […] Next, the cells were washed and re-suspended in fresh PBS-G of either pH 7.4 or 5.4, in the absence of dextran and then incubated at 37° C. for durations of 10, 20, 30, 45 and 60 minutes, followed by flow cytometry analysis (FIG. 32B). Dextran concentrations in RBCs incubated under physiological conditions (pH 7.4) suffers some gradual 20% decrease in value for 60 minutes after PIPC(P<0.05, one tail t-test). However, when RBCs are incubated at pH 5.4, the dextran concentration decline rapidly during the first 10 minutes, losing 50% of their initial value after 20 minutes and continue to decrease at a declining rate for the rest of the period monitored. It appears that long exposure of RBCs to low pH inflict some damage to the cells ability to retain the uptake cargo molecule (FIG. 32b). In an exemplary embodiment of the invention, RBCs are instead subjected to a pulsed treatment regime. […] In an exemplary embodiment of the invention, pulsed uptake is used to avoid/reduce causing leakage in cells and thus reduce efflux. Optionally or alternatively, cells that are sensitive to low pH can be treated. For example, one hour exposures separated by two hour rest periods may be used for siRNA transfection of pH-sensitive cells. […]

[2] = system: COS 5-7 cells; assay: Uptake after one minute of chemically induced low pH (HCl added to HBSS suspension), FACS; type: cell-based, African green monkey; conditions: for Folds Uptake mean: 1 min, 10 μM Dextran-FITC
Method: The following tables show a connection between pH and current. […] The values in the tables are shown as folds relative to the uptake in cells unexposed to any of the treatments. […] The results are expected to be substantially independent of cell type and molecule used, except for a cell-specific change and a molecule specific change.
Cells (COS 5-7) were harvested, re-suspended in DMEM (1 mg/ml glucose, 5% FCS), and incubated (37°, 5% CO2) as designated by the experiment. For uploading the cells with either H2DCF-DA (20 μM) or Bis-DHA (1 mM) incubation lasted 90 minutes. When no pre-treatments were required, the cells were kept in the DMEM for 30 minutes. Following incubation, the cells were centrifuged at 400g for 1 min, the solution aspirated, and cells re-suspended in HBSS exposure media.
Exposure of cells to pulse acidification was through the addition of HCl to the HBSS suspension for 60 seconds, terminated by the addition of a three fold larger volume of DMEM-H.
Cell suspensions were centrifuged (400g for one minute), their solutions aspirated and they were re-suspended with 0.5 ml DMEM-H supplemented with 10u/ml dextranase (Sigma-Aldrich) for 10 minutes at RT. Cells were centrifuged again; their solution aspirated and they were re-suspended with 0.2 ml DMEM-H. PI (25 μg/ml) as a label for permeabilized cells and tryphan blue (0.01% w/v) as a fluorescence quenching agent for extracellular FITC (36) were added to each sample shortly before analysis
Flow cytometry analysis was carried out by FACSort (Becton @ Dickson, San Jose, Calif.), employing a 488-nm argon laser excitation. The green fluorescence of FITC was measured via 530/30 nm filter, the red fluorescence of PI was detected via a 585/42 nm filter. […] Ten thousand cells were examined for each sample and data were collected in the list mode. The analysis of flow cytometry data was performed using WINMDI 2.9 software (Joe Trotter, The Scripps Research Institute). For each sample the geometrical mean was calculated without including PI stained cells. Cell intensity was determined as fold of induction relative to cells' constitutive uptake.
After one minute incubation, cell suspensions were immediately diluted with 3 fold larger volume of cold buffered DMEM to restore pH to a normal pH of 7.5.

Substance: Dextran-FITC
- external pH at which uptake is significant relative to autofluorescence at pH 7.4 ([1]; 70 kD dextran-FITC 10 μM, 5 minutes, P<0.05): < 6 pH
- loss of initial intracellular dextran concentration after loading ([1]; incubated at pH 5.4, 37° C., after 20 minutes): 50%
- decrease of intracellular dextran concentration after loading ([1]; incubated at pH 7.4, 37° C., 60 minutes after 10 minutes loading at pH 5.4): 20%
- intracellular concentration after three cycles of 10 minutes exposure versus one exposure of 30 minutes ([1]; low pH solution, cycles separated by washing and 10 minutes in PBS-G): higher concentration
- Folds Uptake mean ([2]; pH 1.6, relative to unexposed cells): 48.09 folds
- Folds Uptake mean ([2]; pH 1.9, relative to unexposed cells): 42.47 folds
- Folds Uptake mean ([2]; pH 2.5, relative to unexposed cells): 47.62 folds
- Folds Uptake mean ([2]; pH 2.9, relative to unexposed cells): 45.54 folds
- Folds Uptake mean ([2]; pH 3.1, relative to unexposed cells): 41.25 folds
- Folds Uptake mean ([2]; pH 3.3, relative to unexposed cells): 20.14 folds
- Folds Uptake mean ([2]; pH 3.5, relative to unexposed cells): 9.575 folds
- Folds Uptake mean ([2]; pH 3.7, relative to unexposed cells): 7.679 folds
- Folds Uptake mean ([2]; pH 4, relative to unexposed cells): 4.776 folds
- Folds Uptake mean ([2]; pH 4.7, relative to unexposed cells): 3.856 folds
- Folds Uptake mean ([2]; pH 5, relative to unexposed cells): 2.594 folds
- Folds Uptake mean ([2]; pH 5.8, relative to unexposed cells): 2.636 folds
- Folds Uptake mean ([2]; pH 6, relative to unexposed cells): 1.483 folds
- Folds Uptake mean ([2]; pH 6.25, relative to unexposed cells): 1.619 folds
- Folds Uptake mean ([2]; pH 7.4 (reference)): 1 folds
- pH at which uptake reaches saturation ([2]; steep elevation of uptake starting at pH 4): 3 pH
